# From the supplement of paper PMC10307832
# How the values were obtained:
# Experiment in all cases: relative viability (nuclei count vs DMSO), 5 days (fraction); higher = more cells survive
# Vorinostat + Navitoclax = compound: O=C(CCCCCCC(=O)Nc1ccccc1)NO [Vorinostat] + CC1(C)CCC(c2ccc(Cl)cc2)=C(CN2CCN(c3ccc(C(=O)NS(=O)(=O)c4ccc(N[C@H](CCN5CCOCC5)CSc5ccccc5)c(S(=O)(=O)C(F)(F)F)c4)cc3)CC2)C1 [Navitoclax] (partner 0.5 µM)
# How it was run: (§1)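 Relative viability divides the nuclei count in treated wells by that in vehicle wells. Lung cancer cell lines were seeded in 1536-well plates, dosed by pin tool the next day, and fixed and stained after 5 days in one step with final 0.05% Triton X-100, 1% formaldehyde and 1 ug/ml Hoechst. Dosing was a single drug or a fixed anchor-drug dose plus five library-drug doses (not always all listed) in √10 steps, and values are medians of duplicate plates imaged at 4×.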
# Vorinostat + Trametinib = compound: O=C(CCCCCCC(=O)Nc1ccccc1)NO [Vorinostat] + CC(=O)Nc1cccc(-n2c(=O)n(C3CC3)c(=O)c3c(Nc4ccc(I)cc4F)n(C)c(=O)c(C)c32)c1 [Trametinib] (partner 0.02 µM)
# How it was run: as §1
# Vorinostat + Luminespib = compound: O=C(CCCCCCC(=O)Nc1ccccc1)NO [Vorinostat] + CCNC(=O)c1noc(-c2cc(C(C)C)c(O)cc2O)c1-c1ccc(CN2CCOCC2)cc1 [Luminespib] (partner 0.01 µM)
# How it was run: as §1
# Vorinostat + Crizotinib = compound: O=C(CCCCCCC(=O)Nc1ccccc1)NO [Vorinostat] + C[C@@H](Oc1cc(-c2cnn(C3CCNCC3)c2)cnc1N)c1c(Cl)ccc(F)c1Cl [Crizotinib] (partner 1 µM)
# How it was run: as §1
# Vorinostat + Pictilisib = compound: O=C(CCCCCCC(=O)Nc1ccccc1)NO [Vorinostat] + CS(=O)(=O)N1CCN(Cc2cc3nc(-c4cccc5[nH]ncc45)nc(N4CCOCC4)c3s2)CC1 [Pictilisib] (partner 1 µM)
# How it was run: as §1
Cell Line,relative viability (Vorinostat + Navitoclax; first compound 0.253 µM),relative viability (Vorinostat + Navitoclax; first compound 0.8 µM),relative viability (Vorinostat + Navitoclax; first compound 2.53 µM),relative viability (Vorinostat + Navitoclax; first compound 8 µM),relative viability (Vorinostat + Trametinib; first compound 0.253 µM),relative viability (Vorinostat + Trametinib; first compound 0.8 µM),relative viability (Vorinostat + Trametinib; first compound 2.53 µM),relative viability (Vorinostat + Trametinib; first compound 8 µM),relative viability (Vorinostat + Luminespib; first compound 0.253 µM),relative viability (Vorinostat + Luminespib; first compound 0.8 µM),relative viability (Vorinostat + Luminespib; first compound 2.53 µM),relative viability (Vorinostat + Luminespib; first compound 8 µM),relative viability (Vorinostat + Crizotinib; first compound 0.253 µM),relative viability (Vorinostat + Crizotinib; first compound 0.8 µM),relative viability (Vorinostat + Crizotinib; first compound 2.53 µM),relative viability (Vorinostat + Crizotinib; first compound 8 µM),relative viability (Vorinostat + Pictilisib; first compound 0.253 µM),relative viability (Vorinostat + Pictilisib; first compound 0.8 µM),relative viability (Vorinostat + Pictilisib; first compound 2.53 µM),relative viability (Vorinostat + Pictilisib; first compound 8 µM)
NCI-H23,1.06,0.89,0.25,0.142,0.606,0.405,0.166,0.129,0.197,0.25,0.191,0.164,0.525,0.381,0.102,0.116,0.599,0.391,0.181,0.161
NCI-H322M,1.33,1.32,0.836,0.249,0.595,0.501,0.552,0.408,1.25,1.11,0.731,0.28,0.888,0.758,0.447,0.194,0.537,0.541,0.386,0.317
NCI-H441,0.464,0.536,0.164,0.184,0.555,0.602,0.226,0.127,0.485,0.423,0.194,0.162,0.722,0.776,0.141,0.11,0.517,0.448,0.164,0.11
NCI-H460,1.26,0.913,0.0765,0.0108,0.231,0.0799,0.0298,0.0227,0.0445,0.0295,0.0322,0.0199,1.05,0.336,0.0241,0.0093,0.37,0.279,0.208,0.0481
NCI-H520,1.17,0.845,0.256,0.162,0.959,0.549,0.212,0.124,0.209,0.213,0.212,0.195,0.796,0.482,0.133,0.108,0.369,0.213,0.21,0.146
NCI-H596,0.943,0.942,0.279,0.145,0.876,0.632,0.426,0.235,0.933,1.05,0.476,0.265,1.05,0.945,0.517,0.31,0.355,0.357,0.316,0.277
NCI-H647,1.14,0.759,0.149,0.0271,0.642,0.497,0.164,0.0479,0.0999,0.146,0.222,0.0619,1.15,0.591,0.178,0.0502,0.454,0.526,0.153,0.0703
NCI-H727,0.433,0.506,0.241,0.196,0.369,0.392,0.27,0.267,0.25,0.378,0.311,0.341,0.962,0.687,0.299,0.214,0.458,0.455,0.243,0.188
NCI-H838,1.34,1.15,0.395,0.195,0.631,0.481,0.279,0.112,0.287,0.207,0.199,0.118,0.986,0.76,0.241,0.105,0.798,0.675,0.349,0.142
NCI-H1355,1.05,0.876,0.506,0.166,0.484,0.331,0.231,0.131,0.894,0.681,0.383,0.184,1.19,0.963,0.398,0.138,0.556,0.329,0.244,0.165
NCI-H1437,1.11,0.908,0.166,0.118,0.481,0.368,0.23,0.155,1.14,1.07,0.712,0.187,0.876,0.894,0.429,0.0993,0.466,0.167,0.107,0.088
NCI-H1650,1.12,0.851,0.385,0.144,0.609,0.542,0.175,0.0883,0.2,0.178,0.171,0.184,0.848,0.519,0.29,0.101,0.542,0.283,0.181,0.124
NCI-H1651,1.12,0.732,0.0917,0.0643,0.869,0.76,0.343,0.062,0.831,0.799,0.429,0.116,0.846,0.786,0.232,0.097,0.659,0.433,0.0763,0.0536
NCI-H1666,0.845,0.652,0.322,0.235,0.894,0.805,0.561,0.439,1.16,0.894,0.477,0.339,0.788,0.713,0.244,0.22,0.363,0.283,0.206,0.128
NCI-H1734,0.943,0.76,0.269,0.0823,0.721,0.713,0.5,0.117,0.24,0.185,0.165,0.0945,0.779,0.683,0.214,0.127,0.512,0.49,0.299,0.13
NCI-H1755,1.01,0.98,0.369,0.215,0.791,0.77,0.602,0.219,0.442,0.661,0.572,0.166,0.942,0.883,0.233,0.154,0.47,0.368,0.173,0.138

Cell Line,relative viability (Vorinostat + Navitoclax; first compound 0.253 µM),relative viability (Vorinostat + Navitoclax; first compound 0.8 µM),relative viability (Vorinostat + Navitoclax; first compound 2.53 µM),relative viability (Vorinostat + Navitoclax; first compound 8 µM),relative viability (Vorinostat + Trametinib; first compound 0.253 µM),relative viability (Vorinostat + Trametinib; first compound 0.8 µM),relative viability (Vorinostat + Trametinib; first compound 2.53 µM),relative viability (Vorinostat + Trametinib; first compound 8 µM),relative viability (Vorinostat + Luminespib; first compound 0.253 µM),relative viability (Vorinostat + Luminespib; first compound 0.8 µM),relative viability (Vorinostat + Luminespib; first compound 2.53 µM),relative viability (Vorinostat + Luminespib; first compound 8 µM),relative viability (Vorinostat + Crizotinib; first compound 0.253 µM),relative viability (Vorinostat + Crizotinib; first compound 0.8 µM),relative viability (Vorinostat + Crizotinib; first compound 2.53 µM),relative viability (Vorinostat + Crizotinib; first compound 8 µM),relative viability (Vorinostat + Pictilisib; first compound 0.253 µM),relative viability (Vorinostat + Pictilisib; first compound 0.8 µM),relative viability (Vorinostat + Pictilisib; first compound 2.53 µM),relative viability (Vorinostat + Pictilisib; first compound 8 µM)
NCI-H1792,0.763,0.601,0.392,0.0388,0.292,0.257,0.145,0.0464,0.533,0.388,0.295,0.144,0.966,0.983,0.826,0.0888,0.283,0.179,0.0803,0.0579
NCI-H1915,0.792,0.762,0.479,0.0857,0.36,0.291,0.227,0.101,0.792,0.761,0.18,0.0892,0.985,0.847,0.248,0.0881,1.17,0.751,0.426,0.0969
NCI-H1944,1.07,0.945,0.731,0.226,0.481,0.424,0.292,0.0999,0.716,0.573,0.304,0.147,0.965,0.631,0.292,0.125,0.338,0.308,0.27,0.18
NCI-H1975,1.23,0.839,0.308,0.146,0.395,0.311,0.123,0.106,0.286,0.202,0.147,0.16,1.04,0.679,0.174,0.134,0.321,0.242,0.0978,0.118
NCI-H1993,1,0.998,0.608,0.438,0.649,0.61,0.548,0.36,0.874,0.831,0.656,0.4,0.836,0.932,0.531,0.653,0.911,0.919,0.801,0.589
NCI-H2009,1.16,1.16,0.722,0.141,0.336,0.311,0.237,0.119,1.04,0.935,0.752,0.144,0.992,0.983,0.457,0.0597,1.3,0.747,0.346,0.0949
NCI-H2023,1.08,0.91,0.449,0.0939,0.65,0.422,0.184,0.07,1.04,0.534,0.188,0.0701,0.716,0.525,0.188,0.0669,0.221,0.214,0.128,0.0818
NCI-H2085,1.18,1.02,0.643,0.269,0.587,0.503,0.285,0.155,0.447,0.411,0.317,0.19,0.8,0.831,0.436,0.181,0.53,0.462,0.378,0.303
NCI-H2087,1.05,0.959,0.238,0.189,0.202,0.158,0.141,0.087,0.226,0.148,0.157,0.127,0.838,0.727,0.236,0.177,1.32,0.634,0.275,0.133
NCI-H2126,0.834,0.756,0.489,0.211,0.612,0.533,0.296,0.166,0.832,0.977,0.403,0.175,0.961,1.01,0.538,0.203,0.495,0.42,0.334,0.221
NCI-H2170,0.706,0.481,0.216,0.172,0.926,0.921,0.578,0.108,0.894,0.692,0.577,0.171,1.29,0.967,0.229,0.149,0.348,0.235,0.209,0.185
NCI-H2228,0.953,0.809,0.473,0.132,0.67,0.464,0.219,0.101,0.138,0.172,0.168,0.113,0.593,0.502,0.246,0.168,0.649,0.223,0.142,0.138
NCI-H2347,0.933,0.714,0.238,0.16,0.242,0.327,0.226,0.203,0.608,0.333,0.221,0.192,0.793,0.715,0.379,0.283,0.696,0.377,0.199,0.211
NCI-H2405,1.13,0.771,0.0779,0.0557,0.87,0.872,0.486,0.141,0.995,1.03,0.596,0.164,0.917,0.88,0.415,0.0921,0.478,0.542,0.153,0.0468
NCI-H3122,1.09,1.08,0.959,0.184,0.168,0.265,0.298,0.118,0.0783,0.0802,0.0456,0.0728,0.311,0.317,0.227,0.198,0.667,0.758,0.284,0.177
